What follows are compounds tested on Molm13 (assay: cells). Conditions: Homo sapiens, MOLM-13, 96 h, 4 days.
Parameters: Molm13 cell viability screen of virtual-screening hits, 4 days of treatment, per cent of control
Method: We performed virtual screening. Briefly, we screened compounds for binding affinity to PRMT9; compounds were from the National Cancer Institute (NCI) and ZINC library (Fig. 4a,b). […] We used doses of 1 and 5 µM in a Molm13 cell-based viability assay (Extended Data Fig. 6a). […] Specifically, we assessed their effects on PRMT9 catalysis (Extended Data Fig. 6b). […] Cells were treated for 4 days with 1 or 5 μM compounds. For each compound, the number represents its library ID. Experiments were triplicated; P values were derived from t tests. b, R493 methylation assay. […] Catalytic activity was assessed by anti-R493 antibody. Synthesized R493me peptide as positive control. c, Catalysis screen of top 20 compounds. PRMT9 protein was pretreated with indicated compound (10 μM), then incubated with PABPC1 peptides and SAM. d, e, Catalytic activity of indicated compounds based on R493 methylation assay (d). Inhibition curves were calculated based on intensity of dots and normalized to DMSO (e). […] LD2 is designed based on NSC641396 (g). Docking model of NSC641396 in the catalytic pocket (f). h, IC50 analysis of LD2 in B-NHL lines. Cells were treated for 4 days with LD2. […] Cells were treated with a dose titration of 0.5–40 μM LD2 for 48 hr. The inhibition activity of LD2 to PRMT9 (right red curve) was evaluated by calculating the normalized PABPC1 R493 methylation signal. The inhibition activity of LD2 to PRMT5 (right blue curve) was evaluated by calculating the normalized SmB’B’ methylation signal (supplementary Fig. 2). k, Vina docking of LD2 with PRMT9, PRMT5, CARM1 or PRMT7 was performed, and the average docking scores (kcal/mol, with standard deviation) were shown. l, Molecular dynamics simulation analyses of LD2 with PRMT9 or PRMT5.

Compound | viability at 5 µM | viability at 1 µM
O=C(Nc1ccccc1Cl)Oc1ccc(-c2ccccc2)cc1 [NSC204321] | 90.1% | 
NC1=NC(c2ccc(Cl)cc2)N(c2ccc(S(N)(=O)=O)cc2)C(N)=N1 (stereo not shown) [NSC117268] |  | 90.3%
O=C(Nc1ccccc1F)Oc1cccc(OC(=O)Nc2ccccc2F)c1 [NSC214026] | 91% | 92.2%
O=C(Nc1ccc(C2=NCCN2)cc1)c1ccc(Cl)c(C(=O)Nc2ccc(C3=NCCN3)cc2)c1 [NSC67436] | 81.3% | 95.2%
Oc1ccc(N=Cc2c(O)ccc3ccccc23)cc1 [NSC111848] | 74.1% | 93.1%
O=C(O)CCC(=O)c1ccc2ccc3cccc4ccc1c2c34 [NSC407628] | 100% | 94.7%
O=C(/C=C/c1ccc(O)c(O)c1)O[C@@H]1C[C@@](OC(=O)/C=C/c2ccc(O)c(O)c2)(C(=O)O)C[C@@H](O)[C@@H]1O [NSC91529] |  | 110%
c1ccc(-c2nc(-c3nccc4ccccc34)oc2-c2ccccc2)cc1 [NSC25457] | 110% | 
Clc1ccccc1-c1nc2ccccc2[nH]1 [NSC128751] | 80% | 80.4%
COc1ccc2c3c([nH]c2c1)[C@H]1C[C@H]2[C@H](C[C@@H](O)[C@H](OC)[C@H]2CO)CN1CC3 [NSC80137] | 75.6% | 82.2%
COc1ccc(/C=C2\Cc3ccccc3C2=O)cc1OC [NSC643174] | 81% | 116%
CC(=O)O[C@H]1CC[C@]2(C)C(=CC[C@H]3[C@H]4C[C@H]5O[C@]6(CC[C@H](C)CN6)[C@H](C)[C@@H]5[C@]4(C)CC[C@@H]32)C1 [NSC96021] | 87.9% | 102%
COC(=O)[C@@H]1[C@H](O)[C@H](C)[C@H](O)[C@H](C)/C=C\C=C(/C)C(=O)Nc2c(C)c(OC(C)=O)c3c(c2O)C(=O)C(C)=C2OCOC(=C23)/C(C)=C/[C@@](C)(O)[C@H](O)[C@@H](C)[C@H]1O [NSC19990] | 83.8% | 68.6%
c1ccc(-c2ccc(-c3nccc4ccccc34)[nH]2)cc1 [NSC116644] | 88.3% | 
COc1ccc(C2OC3=C(Nc4cc(C)c(C)cc4N3)C2=O)cc1 (stereo not shown) [NSC372275] |  | 95.6%
Nc1ccc(-c2nc3nc(N)nc(N)c3nc2-c2ccc(N)cc2)cc1 [NSC61642] | 116% | 
COc1ccccc1/C=C1\Cc2ccccc2C1=O [NSC636717] | 86% | 
O=C(Nc1cccc(-c2ccccc2)c1)N1CCN(C(=O)Nc2cccc(-c3ccccc3)c2)CC1 [NSC37553] |  | 96.2%
Clc1ccc(-c2n[nH]c3c2Cc2ccccc2-3)cc1Cl [NSC331968] | 43.2% | 62.9%
C[C@H]1CC[C@@]2(C)[C@@H](CC[C@@H]3[C@@H]2CC[C@]2(C)[C@@H](O)CC[C@@H]32)C1 [NSC21603] | 96.5% | 
Oc1ccccc1N=Cc1c(O)ccc2ccccc12 [NSC111847] | 85.7% | 

Compound | viability at 5 µM | viability at 1 µM
CC[C@@]1(O)C(=O)OCc2c1cc1n(c2=O)Cc2cc3ccccc3nc2-1 [NSC94600] | 1.54% | 2.48%
Cc1c(Cl)cccc1NC(=O)CC1Sc2ccccc2NC1=O (stereo not shown) [NSC634396] | 118% | 169%
OC(COc1cccc2ccccc12)CN1CCN(c2ccccc2Cl)CC1 (stereo not shown) [NSC91396] | 143% | 147%
Cc1cc2cc3c(=O)[nH]c(=O)[nH]c3nc2cc1C [NSC109174] | 79.9% | 
O=c1cc(-c2cccnc2)oc2c1ccc1ccccc12 [NSC283845] | 60.4% | 
CO[C@@H]1[C@@H](OC(=O)c2ccc(C)[nH]2)[C@@H](O)[C@H](Oc2ccc3c(O)c(NC(=O)c4ccc(O)c(CC=C(C)C)c4)c(=O)oc3c2Cl)OC1(C)C [NSC227186] | 110% | 
CC(=O)c1sc2c(c1OC(=O)c1ccc(Cl)cc1Cl)c(=O)n(-c1ccccc1)c(=S)n2-c1ccccc1 [NSC671136] | 12.8% | 71.5%
Cn1ncc2c(Nc3ccccc3Cl)nc(Nc3ccccc3Cl)nc21 [NSC19061] |  | 158%
Cc1cc(O)c(C(C)C)cc1N=Cc1cc([N+](=O)[O-])ccc1O [NSC33472] |  | 120%
COc1ccc(NC(=O)c2cc3ccc4c5ccccc5[nH]c4c3cc2O)cc1 [NSC50654] | 134% | 127%
Oc1ccccc1-c1nc2c3ccccc3c3ccccc3c2[nH]1 [NSC332670] | 84.8% | 79.2%
Brc1ccc(-c2csc(Nc3nc(-c4ccc(Br)cc4)cs3)n2)cc1 [NSC55691] | 114% | 
O=C(Nc1cccc([N+](=O)[O-])c1)c1cccc(C(=O)Nc2cccc([N+](=O)[O-])c2)c1 [NSC204232] |  | 110%
O=C(Nc1ccc(Nc2ccncc2)cc1)c1ccc(Nc2ccnc3ccc([N+](=O)[O-])cc23)cc1[N+](=O)[O-] [NSC202386] | 80.4% | 118%
c1cc2c3c(cccc3c1)NC1(CCC3(CC1)Nc1cccc4cccc(c14)N3)N2 [NSC97920] | 8.91% | 59.1%
O=C(O)C(Cc1c[nH]c2ccccc12)N1C(=O)c2ccccc2C1=O (stereo not shown) [NSC401077] | 75.3% | 94.6%
c1ccc(CSc2nnc3c4ccccc4c4ccccc4c3n2)cc1 [NSC327702] | 82.6% | 86.4%
c1ccc(Nc2cccc3c(Nc4ccccc4)cccc23)cc1 [NSC24032] |  | 120%
Cc1cccc(NC2=C(C#N)C(=O)NC3(CCCC3)S2)c1 [NSC319436] | 77.3% | 84%
COc1ccc2c(c1)c1ccc3c(c1n2C)C(=O)C=CC3=O [NSC641396] | 1.44% | 2.72%
Cc1ccc(NC(=O)Nc2nc3ccccc3s2)cc1NC(=O)Nc1nc2ccccc2s1 [NSC319990] | 96.9% | 

Compound | viability at 5 µM | viability at 1 µM
OC(COc1cccc2ccccc12)CN1CCN(c2ccc(Cl)cc2)CC1 (stereo not shown) [NSC111210] | 139% | 160%
c1ccc(-n2c3ccccc3c3ccccc32)cc1 [NSC10416] | 81.7% | 99.1%
O=C(Nc1cccc([N+](=O)[O-])c1)c1ccc2ccccc2c1O [NSC50648] | 62.1% | 81%
Oc1ccc2ccccc2c1C=Nc1ccccc1 [NSC111846] | 84.6% | 77%
CC1=CC(C)(C)Nc2ccc(Cc3ccc4c(c3)C(C)=CC(C)(C)N4)cc21 [NSC217697] | 74.4% | 69.3%
N#C/C(=C\C=C\c1ccccc1)c1nc(-c2ccc(Cl)cc2)cs1 [NSC310347] | 74.4% | 69.3%
OC(c1cc(-c2ccc(C(F)(F)F)cc2)nc(C(F)(F)F)c1)C1CCCCN1 (stereo not shown) [NSC305798] | 18.9% | 91%
Clc1ccccc1/C=C/c1ccnc2ccccc12 [NSC15784] | 81.7% | 85.7%
O=C1c2cccc(Sc3ccccc3)c2C(=O)c2c(Sc3ccccc3)cccc21 [NSC156516] | 118% | 122%
c1ccc(-c2nc(-c3ccccn3)nc(-c3ccccn3)n2)nc1 [NSC112125] | 81.8% | 85.4%
O=C(CC1C=Cc2ccccc2N1C(=O)c1ccccc1)c1ccccc1 (stereo not shown) [NSC116709] | 72.7% | 90.2%
O=C(Nc1ccccc1F)Nc1cccc2ccc(O)cc12 [NSC214005] | 72.7% | 81.3%
O=C(Nc1ccc(Br)c2ccccc12)c1ccc2ccccc2c1O [NSC601359] | 72.7% | 
Cc1c(N2CCCC2)cc2c(c1NC(=O)c1ccccc1Cl)C(C)(C)CC2(C)C [NSC321496] | 79.1% | 92.4%
Cc1cc(O)c(C(C)C)cc1NC(=O)Nc1cccc2ccccc12 [NSC32673] | 45.8% | 90.3%
Cc1c(O)ccc2c(O)c(NC(=O)c3ccc4c(c3)CCC(C)(C)O4)c(=O)oc12 [NSC5157] |  | 94.6%
CO[C@@H]1C[C@](C)(O)Cc2cc3c(c(O)c21)C(=O)c1c(O)cc2c(c1C3=O)O[C@@H]1O[C@@]2(C)[C@H](O)[C@@H](N(C)C)[C@@H]1O [NSC269148] | 1.55% | 2.1%
CCN(CC)c1ccc(/C=C/c2cc(-c3ccccc3)c3ccccc3n2)cc1 [NSC13487] | 94.8% | 93.3%
CCN1Cc2c(/C=C/c3ccccc3)nc3ccc(OC)cc3c2N(c2cccc(Cl)c2)C1 [NSC340852] | 53.2% | 88.3%
Cc1ccc(-c2nc(-c3nccc4ccccc34)oc2-c2ccccc2)cc1 [NSC116702] | 150% | 87.8%
CC(=O)Oc1ccc2cc(-c3ccccc3)c(=O)oc2c1 [NSC17055] | 102% | 
